Reference: patent publication US8859545B2, “Tetrahydronaphthyridine and tetrahydropyrido[4,3-D]pyrimidine compounds and compositions thereof useful for the treatment of inflammatory and respiratory diseases” (Evotec AG, priority 2005, dated 2014)

Test system: P2X2/3 chimera (P2X2/3C)
Experiment: Calcium uptake assay (P2X antagonist assay, agonist-induced calcium influx)
Format: cell-based
Description: Human P2X3 (Accession no. NM_002559), P2X2 (Accession no. NM_170682) and Rat P2X3 (Accession no. NM_031075) and P2X2 (Accession no. NM_053656) are cloned into a mammalian expression vector (e.g., pcDNA5/TO or pcDNA3 Invitrogen). For coexpression of P2X2 and P2X3, the coding regions of both receptors were cloned into a bicistronic vector using methods similar to those described by Kawashima et al., Receptors Channels 5:53-60, 1998. The P2X2/3 chimera clone was created as described by Neelands et al, and then cloned into an expression vector as above. Receptors are expressed in cells (e.g., HEK293 or 1321N1) via transient transfection using standard lipid mediated transfection, or by creation of stable transfectants for each receptor. Cell lines are maintained in DMEM+5% Glutamax, the appropriate level of selective antibiotic, and 10% heat inactivated FBS.
The agonist EC50 is determined at the start of the assay and compound IC50 experiments are run using a set agonist concentration (EC50-90 depending on cell line) as stimulus. The agonists used are αβMeATP, ATP, or other ATP analogs. Compounds may be tested at concentrations ranging from 1 μM to 10 μM. Functional activity of compounds at the P2X receptor is determined by measuring their ability to inhibit agonist-induced calcium influx. Compounds may be tested for antagonist activity against the P2X2/3 chimera, the P2X3 homomer, or the P2X2/3 heteromer. To test for antagonist activity, cells expressing the appropriate receptor are seeded onto 96 or 384 well plates 18-24 hours prior to assay. On the day of the assay, cells are loaded with calcium-sensitive fluorescent dye (e.g., Fluo-4 no wash reagent-Invitrogen cat# F36206, or the BD™ PBX Calcium Assay Kit-BD cat#640175) in Hank's Buffered Salt Solution (HBSS) with up to 10 mM supplemental CaCl2. Plates are incubated at 37° C. and then equilibrated at room temperature. Antagonism of agonist-induced calcium influx is measured using a fluorescent imaging plate reader. The assay comprises two stages: a pre-treatment phase followed by a treatment phase. Compounds may be tested as follows: For the pre-treatment phase, 50 μL of 3× concentration of test compound in HBSS is added to cells containing 100 μL of dye loading media to achieve a final concentration of 1×. For the treatment phase, at a set interval after pre-treatment, 50 μL of 1× test compound plus 4× agonist solution is added to cells. Fluorescence is measured at 0.1-3 second intervals with an excitation wavelength of 494 nm and an emission wavelength of 515 nm. Responses are measured as peak fluorescence after compound-agonist addition minus baseline fluorescence prior to treatment. Percent inhibition is calculated as follows: […]
A calcium uptake assay was performed as described in paragraphs […] above.

[1] = at 3 μM (symbol before the slash)
[2] = at 10 μM (symbol after the slash)

SMILES | Ca Influx P2X2/3C % Inhibition at 3 μM/10 μM [1] | Ca Influx P2X2/3C % Inhibition at 3 μM/10 μM [2]
Cc1ccc(N2CCc3ncnc(NCc4cc(Cl)cc(Cl)c4)c3C2)nc1 [Compound 115] | +/ (compound exhibited 0-25% inhibition at 3 μM) | –
Cc1ccc(N2CCc3ncnc(NCc4cc(Cl)ccc4F)c3C2)nc1 [Compound 111] | +++/ ^ (compound exhibited 50-75% inhibition at 3 μM) | –
Cc1ccc(CNc2ncnc3c2CN(c2ccc(C)cn2)CC3)cc1 [Compound 56] | ++++/ ^ (compound exhibited 75% or greater inhibition at 3 μM) | –
COc1ccccc1CNc1ncnc2c1CN(c1ccc(C)cn1)CC2 [Compound 27] | – | /**** (compound exhibited 25-50% inhibition at 10 μM)
Cc1ccc(CCNc2ncnc3c2CN(c2ccc(C)cn2)CC3)cc1 [Compound 49] | ++++/ ^ (compound exhibited 75% or greater inhibition at 3 μM) | –
Cc1ccc(N2CCc3ncnc(NCc4ccccc4C)c3C2)nc1 [Compound 24] | – | /**** (compound exhibited 25-50% inhibition at 10 μM)
COc1cc(CNc2ncnc3c2CN(c2ccc(C)cn2)CC3)cc(OC)c1 [Compound 87] | +/ (compound exhibited 0-25% inhibition at 3 μM) | –
COc1cccc(CCNc2ncnc3c2CN(c2ccc(C)cn2)CC3)c1 [Compound 46] | ++++/ ^ (compound exhibited 75% or greater inhibition at 3 μM) | –
Cc1ccc(N2CCc3ncnc(NCc4cccc(C(F)(F)F)c4)c3C2)nc1 [Compound 38] | +++/ ^ (compound exhibited 50-75% inhibition at 3 μM) | –
COc1ccc(CCNc2ncnc3c2CN(c2ccc(C)cn2)CC3)cc1OC [Compound 47] | +++/ ^ (compound exhibited 50-75% inhibition at 3 μM) | –
CN1CC(C)(C)c2ccc(Nc3ncnc4c3CN(c3ncccc3Cl)CC4)cc21 [Compound 16, [6-(3-Chloro-pyridin-2-yl)-5,6,7,8-tetrahydro-pyrido[4,3-d]pyrimidin-4-yl]-(3,3-dimethyl-2,3-dihydro-1-methyl-indol-6-yl)-amine] | +/ (compound exhibited 0-25% inhibition at 3 μM) | –
FC(F)(F)c1ccc(Nc2ncnc3c2CN(c2ncccc2Cl)CC3)cn1 [Compound 4, 6-(3-Chloropyridin-2-yl)-N-(6-(trifluoromethyl)pyridin-3-yl)-5,6,7,8-tetrahydropyrido[4,3-d]pyrimidin-4-amine] | – | /* (compound exhibited 0-25% inhibition at 10 μM)
Cc1ccc(N2CCc3ncnc(NCc4ccc(C(C)(C)C)cc4)c3C2)nc1 [Compound 44] | +/ (compound exhibited 0-25% inhibition at 3 μM) | –
